Experimental data reported in patent US10376486B2, “Compositions and methods for reactivating latent viral infections” (priority 2014, dated 2019).

Experiments:
J-Lat A1 cells = experiment: Cell viability of J-Lat A1 cells by Live/Dead dye staining; format: cell-based; conditions: 2-40 nM PEP005
Protocol: FIG. 1: PEP005 induces reactivation of HIV latency in vitro. J-Lat A1 cells were exposed to different concentrations of PEP005 and virus reactivation was measured by GFP expression using flow cytometry. Cell viability was determined by Live/Dead dye staining. (A) Chemical Structure of PEP005. […] (D) PEP005 potently reactivates latent HIV in cell lines compared with other LRAs. J-Lat A1 cells were treated with 10 nM PEP005, 500 nM SAHA, 2 μM JQ1, 2 μM GSK343, 10 ng/ml TNF, 2 μM Prostratin, or 5 ng/ml PMA for 24 hours and the percentage of GFP expression was evaluated using flow cytometry. *, p<0.05; **, p<0.01.
J-Lat A1 cells (harboring a single copy of latent HIV LTR and one copy of green fluorescent protein gene under the HIV LTR control) or U1 cells (harboring two latent HIV genomes with defective Tat gene) were cultured in RPMI1640 medium with 10% fetal bovine serum (FBS) and 1% Pen/strep in a 37° C. incubator containing 5% CO2 [24,31]. Both of the cell lines were obtained from NIH AIDS Reagent Program. […] HIV reactivation was quantified by GFP expression using flow cytometry and the data were analyzed using FlowJo Software for J-Lat A1 cells, or by quantitative RT-PCR (RT-qPCR) for J-Lat A1 and U1 cells. Cell viability was evaluated using Live/Dead dye (Life Technologies) by flow cytometry. […]

primary CD4+ T cells [1] = experiment: Pro-inflammatory cytokine expression in primary CD4+ T cells (RT-qPCR); format: cell-based, human; conditions: CD4+ T cells of healthy HIV-negative donors, 6 or 12 nM PEP005, 24 or 72 hours
Protocol: CD4+ T cells were isolated from healthy donors and treated with 6 or 12 nM of PEP005 for 24 or 72 hours, and the relative expression of TNF-α (A), IFN-γ (B), IL-2 (C), and IL-6 (D) was quantified using RT-qPCR and normalized to GAPDH internal control.

[2] = tested on: J-Lat A1 cells, U1 cells, primary CD4+ T cells; experiment: Cell proliferation / S-phase progression by BrdU ELISA; format: cell-based; conditions: U1 cells or primary CD4+ T cells, 12 nM PEP005, 24 hours
Protocol: FIG. 7: PEP005 causes minimal cytotoxicity and T cell proliferation. To evaluate the impact of PEP005 on the cell viability, U1 cells (A), J-Lat A1 cells (B) and CD4+ T cells (C) were treated with 12 nM of PEP005 for 24 hours, the cell viability was examined with the MTT assay and the S-phase cell cycle progression was evaluated after BrdU incorporation using BrdU ELISA. 25-50 μM Etoposide or 100-150 μM Doxorubicin (Doxo) served as positive controls for MTT and BrdU assays respectively. Statistical analysis was performed in comparison with controls. **, p<0.01.
Cells were placed in 96-well plates and incubated for 24 or 72 h hrs with compounds. Cell viability was measured using MTT assay (Roche Laboratories), and cell proliferation/S-phase progression was determined by using BrdU ELISA kit (Cell signaling, #1863).

CD4, CCR5 and CXCR4 = experiment: Expression of HIV receptors/co-receptors in primary CD4+ T cells (RT-qPCR); format: cell-based, human; conditions: primary CD4+ T cells of healthy HIV-negative donors, 12 nM PEP005, 72 hours
Protocol: FIG. 12: PEP005 down-modulates the expression of CD4, CCR5 and CXCR4 and inhibits HIV infection of primary CD4+ T cells ex vivo. (A) PEP005 inhibits expression of HIV receptors/co-receptors. […] The expression of CD4, CCR5 and CXCR4 genes was evaluated using RT-qPCR after normalizing for GAPDH. (B) and (C) PEP005 inhibits HIV infection of primary CD4+ T cells ex vivo. Primary CD4+ T cells were pre-treated with 12 or 24 nM PEP005 overnight and infected with the virus. The CD4+ T cells were incubated for 5 days without PEP005. The cells were collected for RT-qPCR targeting the HIV LTR region (B), or supernatants were collected for p24 ELISA (C). *, p<0.05; **, p<0.01.
Recent studies have shown that Prostratin and analogs down-modulate HIV receptor/co-receptor expression, which could have protective effects against the viral infection. Conversely, SAHA, known to induce latent HIV expression in HIV infected individuals receiving ART, was reported to increase susceptibility of naive CD4+ T cells to HIV acquisition. […] Primary CD4+ T cells from peripheral blood samples of healthy HIV-negative donors were treated with 12 nM PEP005 and evaluated for the expression levels of CD4, CCR5, and CCXR4 using RT-qPCR. […] The virological outcome in the CD4+ T cell cultures in vitro was monitored for 5 days.

primary CD4+ T cells [3] = tested on: primary CD4+ T cells
Protocol: FIG. 5: Expression of T cell activation markers in PEP005-treated primary CD4+ T cells. (A) CD4+ T cells were isolated from uninfected control subjects and treated with 12 nM PEP005 for 24 hrs. Total RNA was extracted, and gene expression of CD38, CD69, CD25, or HLA-DR was analyzed by RT-qPCR. (B-F) PBMCs isolated from peripheral blood of healthy HIV-negative donors were treated for 24 or 72 hours with 12 nM of PEP005, and the expression of CD38 (B), CD69 (C, D), and HLA-DR (E, F) was evaluated using flow cytometry after co-staining with the CD3 T cell marker.
Isolation of the peripheral blood mononuclear cells (PBMC) and purification of CD4+ T cells using the EasySep kit ([sequence] Technologies Inc. Vancouver, BC, Canada) were performed as previously described [24]. The purified CD4+ T cells were plated at a density of 1×10^6 cells/ml and treated with 200 ng/ml PMA plus 2 μM Ionomycin, 6-12 nM PEP005, 2 μM of JQ1, or 12 nM PEP005 plus 2 μM JQ1 for 6 hrs or 48 hrs and the cells were collected for RNA purification. To measure changes in the cell activation status of CD4+ and CD8+ T cell subsets, PBMCs were isolated from uninfected controls and 2×10^6 cells were incubated with DMSO, 200 ng/ml PMA plus 2 μM Ionomycin, 6-12 nM PEP005 for 24 hrs or 72 hrs, and immunostained with anti-CD3, anti-CD38, anti-CD69, or anti-HLA-DR antibodies (Biolegend) for 20 min at 4° C. Cells were fixed in 1% PFA and analyzed by flow cytometry (FlowJo software from TreeStar).

[4] = PBMCs of healthy HIV-negative donors, 12 nM PEP005, 24 or 72 hours
[5] = purified primary CD4+ T cells, 12 nM PEP005, 24 hrs

SMILES: C/C=C(/C)C(=O)O[C@H]1C(C)=C[C@]23C(=O)[C@@H](C=C(CO)[C@@H](O)[C@]12O)[C@H]1[C@@H](C[C@H]3C)C1(C)C [PEP005, (1aR,2S,5R,5aS,6S,8aS,9R,10aR)-5,5a-Dihydroxy-4-(hydroxymethyl)-1,1,7,9-tetramethyl-11-oxo-1a,2,5,5a,6,9,10,10a-octahydro-1H-2,8a-methanocyclopenta[a]cyclpropa[e][10]annulen-6-yl (2Z)-2-methylbut-2-enoate]
- cellular toxicity (J-Lat A1 cells): absence of any apparent cellular toxicity
- expression of TNF-α, IFN-γ, IL-2, and IL-6 (primary CD4+ T cells [1]): no significant increase
- expression of TNF-α (primary CD4+ T cells [1]; not statistically significant): tendency towards an up-regulation
- proportion of cells in S-phase (BrdU) [2]: did not induce any significant increase
- expression of CD4, CCR5, and CXCR4 (CD4, CCR5 and CXCR4): significant reduction
- expression of CD38 (24 hr) and HLA-DR by flow cytometry (primary CD4+ T cells [3]; [4]): no significant change
- expression of CD69 by flow cytometry (primary CD4+ T cells [3]; [4]): increase in expression of CD69
- expression of CD38, CD25, or HLA-DR by RT-qPCR (primary CD4+ T cells [3]; [5]): did not cause any significant change
- expression of CD69 by RT-qPCR (primary CD4+ T cells [3]; [5]): increased expression of CD69
